{
  "source": "the Kinase Knowledgebase extract (Sharma et al. 2016)",
  "target": "MAPK14 (UniProt Q16539)",
  "sequence (Q16539 whole entry, looked up)": "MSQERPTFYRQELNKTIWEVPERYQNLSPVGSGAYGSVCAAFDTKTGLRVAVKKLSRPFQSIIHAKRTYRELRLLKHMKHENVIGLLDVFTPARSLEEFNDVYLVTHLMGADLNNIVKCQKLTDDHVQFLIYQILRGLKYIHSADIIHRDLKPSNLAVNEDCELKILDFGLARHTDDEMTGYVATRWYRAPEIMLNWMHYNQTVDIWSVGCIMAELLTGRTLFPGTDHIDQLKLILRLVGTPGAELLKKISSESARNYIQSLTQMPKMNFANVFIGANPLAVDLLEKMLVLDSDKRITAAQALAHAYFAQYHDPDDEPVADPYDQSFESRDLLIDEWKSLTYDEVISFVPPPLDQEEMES",
  "assay": "Assessment of MAPK14 Kinase Activity Using Spectrophotometric Assay",
  "details": "for inhibition: concentration not given here",
  "data": [
    {"smiles": "CC(C)(C)c1cc(NC(=O)N2=CC=C3C=CC=CC3=C2)n(n1)c4cccc(CCC(=O)O)c4", "values": [
      {"measurement": "inhibition", "value": 58, "unit": "%"}
    ]},
    {"smiles": "CC(C)(C)c1cc(NC(=O)Nc2cccc(Cl)c2)n(-c2cccc(CN)c2)n1", "values": [
      {"measurement": "IC50", "value": 110, "unit": "nM"}
    ]},
    {"smiles": "O=C(Nc1cccc(Cl)c1Cl)Nc1cc(-c2ccccc2F)nn1-c1ccc(CC(=O)N2CC[C@H](CO)C2)cc1", "values": [
      {"measurement": "IC50", "value": 37, "unit": "nM"}
    ]},
    {"smiles": "CC(C)(C)c1cc(NC(=O)Nc2cccc(-c3ncccn3)c2)n(-c2cccc(CC(N)=O)c2)n1", "values": [
      {"measurement": "inhibition", "value": 57, "unit": "%"}
    ]},
    {"smiles": "O=C(O)CCc1ccc(-n2nc(-c3cccs3)cc2NC(=O)Nc2cccc(Cl)c2Cl)cc1", "values": [
      {"measurement": "IC50", "value": 30, "unit": "nM"}
    ]},
    {"smiles": "COc1cccc(-n2nc(C(C)(C)C)cc2NC(=O)Nc2cccc(Br)c2)c1", "values": [
      {"measurement": "IC50", "value": 354, "unit": "nM"}
    ]},
    {"smiles": "CC(C)(C)c1cc(NC(=O)Nc2cccc(Cl)c2Cl)n(-c2ccc(CCC(=O)O)cc2)n1", "values": [
      {"measurement": "IC50", "value": 14, "unit": "nM"}
    ]},
    {"smiles": "CC(O)c1cc(-n2nc(C(C)(C)C)cc2NC(=O)Nc2cccc(Cl)c2Cl)cc2ccccc12", "note": "(centres undefined)", "values": [
      {"measurement": "IC50", "value": 150, "unit": "nM"}
    ]},
    {"smiles": "NC(=O)Cc1cccc(-n2nc(C3CCCC3)cc2NC(=O)Nc2ccc(-c3cccc4c3C=NC4=O)cc2)c1", "values": [
      {"measurement": "inhibition", "value": 82, "unit": "%"}
    ]},
    {"smiles": "CN1C(=O)C(c2cccc(NC(=O)Nc3cc(C(C)(C)C)nn3-c3ccc4c(c3)CCN4)c2)C=C2C=NC=NC21", "note": "(centres undefined)", "values": [
      {"measurement": "IC50", "value": 13, "unit": "nM"}
    ]},
    {"smiles": "Cc1ccc(NC(=O)Nc2cc(C(C)(C)C)nn2-c2cccc(CC(N)=O)c2)cc1Nc1ncccn1", "values": [
      {"measurement": "inhibition", "value": 90, "unit": "%"}
    ]},
    {"smiles": "CC(C)(C)c1cc(NC(=O)Nc2cccc(Cl)c2Cl)n(-c2cccc(CC(=O)O)c2)n1", "values": [
      {"measurement": "IC50", "value": 22, "unit": "nM"}
    ]},
    {"smiles": "CC(C)(C)c1cc(NC(=O)Nc2cccc3c2C=NC3=O)n(-c2cccc(CC(N)=O)c2)n1", "values": [
      {"measurement": "IC50", "value": 120, "unit": "nM"}
    ]},
    {"smiles": "CN1C(=O)C(c2cccc(NC(=O)Nc3cc(C(C)(C)C)nn3-c3ccc4c(c3)CCN4S(C)(=O)=O)c2)C=C2C=NC=NC21", "note": "(centres undefined)", "values": [
      {"measurement": "IC50", "value": 28, "unit": "nM"}
    ]}
  ]
}
